Where two headings read alike, the source gives them in different places. *1 amine or outer side, *2 acyl side, *3 side chain or, on linkers, in order; H or OH if unused. Where a SMILES comes first, the peptide text is derived from it. Bridges are numbered along the chain shown (N, C = ends). [ ]: non-standard residue; d: D form. The star is where a group is joined. hPhe(3-Cl-4-CF3) = N[C@@H](CCc1ccc(C(F)(F)F)c(Cl)c1)C(=O)O; X33 = O=C([C@H](Cc1ccc(C(F)(F)F)cc1)N(CC1CC1)[*:1])[*:2]; X12 = C=CCN([C@@H](Cc1ccc(C(F)(F)F)cc1)C(=O)[*:2])[*:1]; NPrPhe(4-CF3) = CCCN[C@@H](Cc1ccc(C(F)(F)F)cc1)C(=O)O; NEtPhe(4-CF3) = CCN[C@@H](Cc1ccc(C(F)(F)F)cc1)C(=O)O; NMeGly(cPent) = CN[C@H](C(=O)O)C1CCCC1; NMeD = CN[C@@H](CC(=O)O)C(=O)O; NMeL = CN[C@@H](CC(C)C)C(=O)O; Ac6c = NC1(C(=O)O)CCCCC1; Morpholide = C1CN(*)CCO1; NMeA = CN[C@@H](C)C(=O)O; Ac5c = NC1(C(=O)O)CCCC1; Aze = O=C(O)[C@@H]1CCN1; Sar = CNCC(=O)O
Assays:
[1] = test system: human lung cancer strain NCI-H441; assay type: cell-based
Procedure, shortened: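 Readout: […] after the ATP-based reagent. Compound: serial dilutions in dimethyl sulfoxide.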

[2] = target: GDP-bound NRAS wild-type protein (Homo sapiens, UniProt P01111); test: Binding to NRAS by surface plasmon resonance (SPR), KD and KD ratio to KRAS
GDP-bound NRAS wild-type protein, sequence (P01111 whole entry): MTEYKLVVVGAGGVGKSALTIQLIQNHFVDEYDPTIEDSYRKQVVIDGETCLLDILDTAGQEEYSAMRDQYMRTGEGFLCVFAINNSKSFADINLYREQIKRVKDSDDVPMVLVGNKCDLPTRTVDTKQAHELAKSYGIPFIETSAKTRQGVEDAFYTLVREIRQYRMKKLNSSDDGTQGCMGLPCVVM
Procedure, shortened: (§1)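 GDP-bound biotin-Avi RAS captured at ~100–300 RU, 30°C, pH 7.4 HBS containing 10 µM GDP, 10 mM MgCl2, 1 mM DTT, 0.01% Tween 20 and 4% DMSO. KD by 1:1 fitting.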

[3] = target: HRAS wild-type protein (Homo sapiens, UniProt P01112); test: Binding to HRAS by surface plasmon resonance (SPR), KD and KD ratio to KRAS
HRAS wild-type protein, sequence (P01112 whole entry): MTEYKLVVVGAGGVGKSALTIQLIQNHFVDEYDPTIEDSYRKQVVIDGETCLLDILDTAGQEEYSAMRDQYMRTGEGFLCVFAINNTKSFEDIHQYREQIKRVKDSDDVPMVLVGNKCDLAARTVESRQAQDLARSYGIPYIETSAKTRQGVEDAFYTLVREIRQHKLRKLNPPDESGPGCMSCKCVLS
Procedure, shortened: as §1

[4] = ratio of KD value for GDP-bound NRAS wild-type protein to KD value for KRAS (SPR)
[5] = ratio of KD value for HRAS wild-type protein to KD value for KRAS (SPR)
[6] = ratio of KD for GDP-bound NRAS wild-type protein to KD for KRAS
[7] = ratio of KD for HRAS wild-type protein to KD for KRAS
[8] = ratio of the KD value with respect to GDP-bound NRAS wild-type protein to the KD value with respect to KRAS
[9] = ratio of the KD value with respect to HRAS wild-type protein to the KD value with respect to KRAS

SMILES | IC50 [1] [µM] | NRAS /KRAS [2, 4] | HRAS /KRAS [3, 5] | NRAS /KRAS [2, 6] | HRAS /KRAS [3, 7] | IC50 ([1]; NCI-H441 cells, 4 days, CellTiter-Glo, read-out: NCl-H441 IC50) [µM] | NRAS /KRAS [2, 8] | HRAS /KRAS [3, 9]
CCC[C@H]1C(=O)N[C@@H]([C@@H](C)CC)C(=O)N(CCC)CC(=O)N(C)[C@H]2C/C=C\CCN(C2=O)[C@@H](Cc2ccc(C(F)(F)F)cc2)C(=O)N(C)CC(=O)N[C@@H](CCc2cc(F)c(C(F)(F)F)c(F)c2)C(=O)N2C[C@H](OCC)C[C@H]2C(=O)NC2(CCC2)C(=O)N(C)[C@@H](C2CCCC2)C(=O)N(C)[C@H](C(=O)N(C)C)CC(=O)N1C [PP1767] | 0.0179 | A (a compound having 10 or more and less than 20 is denoted as A) | B (a compound having 3 or more and less than 10 is denoted as B) |  |  |  |  | 
CC[C@H](C)[C@@H]1NC(=O)[C@H](CC(C)C)N(C)C(=O)C[C@@H](C(=O)N2CCOCC2)N(C)C(=O)[C@H](C2CCCC2)N(C)C(=O)C2(CCC2)NC(=O)[C@@H]2[C@@H](O)CCN2C(=O)[C@H](CCc2cc(F)c(C(F)(F)F)c(F)c2)NC(=O)CN(C)C(=O)[C@H](Cc2ccc(C(F)(F)F)cc2)N2CCCC[C@@H](C2=O)N(C)C(=O)CN(C)C1=O [PP0869] | 0.134 |  |  | B (a compound having 3 or more and less than 10 is denoted as B) | B (a compound having 3 or more and less than 10 is denoted as B) |  |  | 
CCC[C@H]1C(=O)N[C@@H]([C@@H](C)CC)C(=O)N(C)CC(=O)N(C)[C@H]2C/C=C\CCN(C2=O)[C@@H](Cc2ccc(C(F)(F)F)cc2)C(=O)N(C)CC(=O)N[C@@H](CCc2ccc(CC)c(F)c2)C(=O)N2C[C@H](OCC)C[C@H]2C(=O)NC2(CC(C)(C)C2)C(=O)N(C)[C@@H](C2CCCC2)C(=O)N(C)[C@H](C(=O)N(C)C)CC(=O)N1C [PP2856] |  |  |  | A (a compound having 10 or more and less than 20 is denoted as A) | A (a compound having 10 or more and less than 20 is denoted as A) | 0.0335 |  | 
CC[C@H](C)[C@@H]1NC(=O)[C@H](CC(C)C)N(C)C(=O)C[C@@H](C(=O)N2CCOCC2)N(C)C(=O)[C@H](C2CCCC2)N(C)C(=O)C2(CCCC2)NC(=O)[C@@H]2CCCN2C(=O)[C@H](CCc2ccc(C(F)(F)F)c(Cl)c2)NC(=O)CN(C)C(=O)[C@H](Cc2ccc(C(F)(F)F)cc2)N(CC2CC2)C(=O)[C@@H]2CCN2C(=O)[C@H](C)N(C)C1=O [PP0108] ([NMeL]I[NMeA][Aze][X33][Sar][hPhe(3-Cl-4-CF3)]P[Ac5c][NMeGly(cPent)][NMeD]-Morpholide; lactam N-11) | 0.009 |  |  | C (A compound having a KD ratio of 0.1 or more and less than 3 is denoted as C) | C (A compound having a KD ratio of 0.1 or more and less than 3 is denoted as C) |  |  | 
C=CCN1C(=O)[C@@H]2CCN2C(=O)[C@H](C)N(C)C(=O)[C@H]([C@@H](C)CC)NC(=O)[C@H](CC(C)C)N(C)C(=O)C[C@@H](C(=O)N2CCOCC2)N(C)C(=O)[C@H](C2CCCC2)N(C)C(=O)C2(CCCC2)NC(=O)[C@@H]2CCCN2C(=O)[C@H](CCc2ccc(C(F)(F)F)c(Cl)c2)NC(=O)CN(C)C(=O)[C@@H]1Cc1ccc(C(F)(F)F)cc1 [PP0114] ([NMeL]I[NMeA][Aze][X12][Sar][hPhe(3-Cl-4-CF3)]P[Ac5c][NMeGly(cPent)][NMeD]-Morpholide; lactam N-11) | 0.0061 |  |  | C (A compound having a KD ratio of 0.1 or more and less than 3 is denoted as C) | C (A compound having a KD ratio of 0.1 or more and less than 3 is denoted as C) |  |  | 
CC[C@H](C)[C@@H]1NC(=O)[C@H](C)N(C)C(=O)C[C@@H](C(=O)N(C)C)N(C)C(=O)[C@H](C2CCCC2)N(C)C(=O)C2(CCC2)NC(=O)[C@@H]2CC(F)(F)CN2C(=O)[C@H](CCc2cc(F)c(C(F)(F)F)c(F)c2)NC(=O)CN(C)C(=O)[C@H](Cc2ccc(C(F)(F)F)cc2)N2CCCCC[C@@H](C2=O)N(C)C(=O)CN(C)C1=O [PP0473] | 0.0148 |  |  |  |  |  | C (A compound having a KD ratio of 0.1 or more and less than 3 is denoted as C) | C (A compound having a KD ratio of 0.1 or more and less than 3 is denoted as C)
CCO[C@@H]1C[C@H]2C(=O)NC3(CC(C)(C)C3)C(=O)N(C)[C@@H](C3CCCC3)C(=O)N(C)[C@H](C(=O)N(CC)CC)CC(=O)N(C)[C@@H](CC)C(=O)N[C@@H]([C@@H](C)CC)C(=O)N(C)CC(=O)N(C)[C@H]3C/C=C\CCN(C3=O)[C@@H](Cc3ccc(C)cc3)C(=O)N(C)CC(=O)N[C@@H](CCc3ccc(C(F)(F)F)c(OC)c3)C(=O)N2C1 [PP1881] | 0.0167 | A (a compound having 10 or more and less than 20 is denoted as A) | A (a compound having 10 or more and less than 20 is denoted as A) |  |  |  |  | 
CCC[C@H]1C(=O)N[C@@H](C2CCCC2)C(=O)N(C)CC(=O)N(C)[C@H]2C/C=C\CCN(C2=O)[C@@H](Cc2ccc(C)cc2)C(=O)N(C)CC(=O)N[C@@H](CCc2cc(F)c(C(F)(F)F)c(F)c2)C(=O)N2CC3(CC3)C[C@H]2C(=O)NC2(CC(C)(C)C2)C(=O)N(C)[C@@H](C2CCCC2)C(=O)N(C)[C@H](C(=O)N(C)C)CC(=O)N1C [PP2990] | 0.0089 |  |  | A (a compound having 10 or more and less than 20 is denoted as A) | A (a compound having 10 or more and less than 20 is denoted as A) |  |  | 
CC[C@H](C)[C@@H]1NC(=O)[C@H](CC(F)(F)F)N(C)C(=O)C[C@@H](C(=O)N2CCOCC2)N(C)C(=O)[C@H](C2CCCC2)N(C)C(=O)C2(CCCC2)NC(=O)[C@@H]2CCCN2C(=O)[C@H](CCc2cc(F)c(C(F)(F)F)c(F)c2)NC(=O)CN(C)C(=O)[C@H](Cc2ccc(C(F)(F)F)cc2)N2CCCC[C@@H](C2=O)N(C)C(=O)CN(C)C1=O [PP0594] | 0.0025 |  |  |  |  |  | C (A compound having a KD ratio of 0.1 or more and less than 3 is denoted as C) | B (a compound having 3 or more and less than 10 is denoted as B)
CCC[C@H]1C(=O)N[C@@H]([C@@H](C)CC)C(=O)N(C)CC(=O)N(C)[C@H]2C/C=C\CCN(C2=O)[C@@H](CC2CCCCC2)C(=O)N(C)CC(=O)N[C@@H](CCc2ccc(C(F)(F)F)c(OC)c2)C(=O)N2C[C@H](OCC)C[C@H]2C(=O)N(C)C2(CCC2)C(=O)N(C)[C@@H](C2CCCC2)C(=O)N(C)[C@H](C(=O)N(C)C)CC(=O)N1C [PP2336] | 0.0163 |  |  |  |  |  | A (a compound having 10 or more and less than 20 is denoted as A) | A (a compound having 10 or more and less than 20 is denoted as A)
CCO[C@@H]1C[C@H]2C(=O)NC3(CCC3)C(=O)N(C)[C@@H](C3CCCC3)C(=O)N(C)[C@H](C3CCCCC3)CC(=O)N(C)[C@@H](COC)C(=O)N[C@@H]([C@@H](C)CC)C(=O)N(C)CC(=O)N(C)[C@H]3C/C=C\CCN(C3=O)[C@@H](Cc3ccc(C(F)(F)F)cc3)C(=O)N(C)CC(=O)N[C@@H](CCc3cc(F)c(C(F)(F)F)c(F)c3)C(=O)N2C1 [PP1584] | 0.0664 | B (a compound having 3 or more and less than 10 is denoted as B) | B (a compound having 3 or more and less than 10 is denoted as B) |  |  |  |  | 
CC[C@H](C)[C@@H]1NC(=O)[C@H](CC(C)C)N(C)C(=O)C[C@@H](C(=O)N2CCOCC2)N(C)C(=O)[C@H](C2CCCC2)N(C)C(=O)C2(CCCCC2)NC(=O)[C@@H]2CCCN2C(=O)[C@H](CCc2ccc(C(F)(F)F)c(Cl)c2)NC(=O)CN(C)C(=O)[C@H](Cc2ccc(C(F)(F)F)cc2)N(CC)C(=O)[C@@H]2CCN2C(=O)[C@H](C)N(C)C1=O [PP0222] ([NMeL]I[NMeA][Aze][NEtPhe(4-CF3)][Sar][hPhe(3-Cl-4-CF3)]P[Ac6c][NMeGly(cPent)][NMeD]-Morpholide; lactam N-11) | 0.0171 |  |  | C (A compound having a KD ratio of 0.1 or more and less than 3 is denoted as C) | C (A compound having a KD ratio of 0.1 or more and less than 3 is denoted as C) |  |  | 
CCO[C@@H]1C[C@H]2C(=O)NC3(CC(C)(C)C3)C(=O)N(C)[C@@H](C(CC)CC)C(=O)N(C)[C@H](C(=O)N(C)C)CC(=O)N(C)[C@H]3CCC/C=C/c4ccc(cc4)C[C@@H](C(=O)N(C)CC(=O)N[C@@H](CCc4ccc(Cl)c(Cl)c4)C(=O)N2C1)N1CC/C=C\C[C@@H](C1=O)N(C)C(=O)CN(C)C(=O)[C@H]([C@@H](C)CC)NC3=O [PP2580] | 0.0079 |  |  | AA (a compound having 20 or more is denoted as AA) | A (a compound having 10 or more and less than 20 is denoted as A) |  |  | 
CCO[C@@H]1C[C@H]2C(=O)NC3(CCC3)C(=O)N(C)[C@@H](C3CCCC3)C(=O)N(C)[C@H](C(=O)N(C)C)CC(=O)N(C)[C@@H](CC(C)C)C(=O)N[C@@H]([C@@H](C)CC)C(=O)N(C)CC(=O)N(C)[C@H]3C/C=C\CCN(C3=O)[C@@H](Cc3ccc(F)cc3C)C(=O)N(C)CC(=O)N[C@@H](CCc3cc(F)c(C(F)(F)F)c(F)c3)C(=O)N2C1 [PP1532] | 0.0134 | A (a compound having 10 or more and less than 20 is denoted as A) | B (a compound having 3 or more and less than 10 is denoted as B) |  |  |  |  | 
CCCN1C(=O)CN(C)C(=O)[C@@H]2CCN2C(=O)[C@H]([C@@H](C)CC)NC(=O)[C@H](CC(C)C)N(C)C(=O)C[C@@H](C(=O)N2CCOCC2)N(C)C(=O)[C@H](C2CCCC2)N(C)C(=O)C2(CCCC2)NC(=O)CN(C)C(=O)[C@H](CCc2ccc(C(F)(F)F)c(Cl)c2)NC(=O)CN(C)C(=O)[C@@H]1Cc1ccc(C(F)(F)F)cc1 [PP0314] ([NMeL]I[Aze][Sar][NPrPhe(4-CF3)][Sar][hPhe(3-Cl-4-CF3)][Sar][Ac5c][NMeGly(cPent)][NMeD]-Morpholide; lactam N-11) | 0.0581 |  |  | B (a compound having 3 or more and less than 10 is denoted as B) | C (A compound having a KD ratio of 0.1 or more and less than 3 is denoted as C) |  |  | 

Reference: patent EP4603105A1, “PHARMACEUTICAL COMPOSITION CONTAINING CYCLIC COMPOUND HAVING SELECTIVE KRAS INHIBITORY EFFECT AGAINST HRAS AND NRAS” (CHUGAI SEIYAKU KABUSHIKI KAISHA, priority 2022, dated 2024)
